Test [1] addresses T1, Histidine tagged HIF-2α protein containing PAS-B domain (240-350) (Homo sapiens, UniProt Q99814).
T1 construct: HIF-2α protein containing PAS-B domain (240-350); made in house
Put plainly: HIF-2α Scintillation Proximity Assay (SPA) binding assay. Conditions: 50 nM HIF-2α protein, 25 nM 3H-tracer. The method in brief: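 His-tagged HIF-2α PAS-B (240-350), 50 nM final, preincubated with compound 1 h at room temperature in 25 mM Tris-HCl pH 7.4, 150 mM NaCl, 0.15% BSA, 0.001% Tween 20, 2% DMSO. Copper-chelate SPA beads (3 ug/well, 45 min) and 25 nM tritiated N-(3-chlorophenyl)-4-nitro-2,1,3-benzoxadiazol-5-amine tracer followed; IC50 from four-parameter fits.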
Background: SPA uses beads or plates that emit light when radiolabelled molecules are held near them.

For test [2], the target named is T2, HIF-2α (Homo sapiens, UniProt Q99814).
T2 construct: host or cells: 786-O cells stably transduced with Cignal Lenti HIF Luc Reporter (only the reporter was introduced, not HIF-2α)
T2 sequence (Q99814 whole entry): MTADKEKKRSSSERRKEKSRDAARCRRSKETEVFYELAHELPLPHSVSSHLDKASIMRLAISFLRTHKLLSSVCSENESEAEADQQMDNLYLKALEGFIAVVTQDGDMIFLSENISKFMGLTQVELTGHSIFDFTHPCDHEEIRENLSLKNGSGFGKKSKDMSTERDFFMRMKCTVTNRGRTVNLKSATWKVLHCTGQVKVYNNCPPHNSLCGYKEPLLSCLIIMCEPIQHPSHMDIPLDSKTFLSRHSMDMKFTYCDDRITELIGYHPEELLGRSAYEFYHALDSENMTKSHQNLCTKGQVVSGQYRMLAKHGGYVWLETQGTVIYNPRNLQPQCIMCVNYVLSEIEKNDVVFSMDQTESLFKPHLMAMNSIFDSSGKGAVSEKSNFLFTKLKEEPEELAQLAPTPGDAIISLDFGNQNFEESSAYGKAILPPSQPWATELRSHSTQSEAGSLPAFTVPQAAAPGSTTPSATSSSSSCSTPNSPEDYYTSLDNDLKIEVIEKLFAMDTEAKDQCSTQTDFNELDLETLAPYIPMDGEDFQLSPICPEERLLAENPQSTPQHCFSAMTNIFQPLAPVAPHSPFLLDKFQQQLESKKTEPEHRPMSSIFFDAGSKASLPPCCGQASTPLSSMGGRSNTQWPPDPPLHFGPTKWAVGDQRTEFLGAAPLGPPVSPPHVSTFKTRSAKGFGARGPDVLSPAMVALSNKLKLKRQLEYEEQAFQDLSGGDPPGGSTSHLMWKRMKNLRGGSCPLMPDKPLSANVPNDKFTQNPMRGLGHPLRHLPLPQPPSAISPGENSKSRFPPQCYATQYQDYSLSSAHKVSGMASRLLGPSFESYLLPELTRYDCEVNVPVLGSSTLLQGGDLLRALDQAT
Put plainly: HIF-2α luciferase reporter assay in HIF-Luc-786-O cells. It is filed as cell-based. The method in brief:
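786-O cells stably carrying a HIF-responsive luciferase reporter, 20,000/well in OptiMem with 1% DMSO, exposed to compound up to 50 uM for 20 h at 37 °C. ONE-Glo luminescence normalised to DMSO and no-cell controls; IC50 by four-parameter fit.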
In general terms: A reporter such as luciferase makes a cellular process visible.

Some results are limits rather than exact numbers.

A word on the IC50: it is the concentration at which inhibition is half-maximal. Read a low IC50 as higher potency.

T1 sequence (Q99814 240-350): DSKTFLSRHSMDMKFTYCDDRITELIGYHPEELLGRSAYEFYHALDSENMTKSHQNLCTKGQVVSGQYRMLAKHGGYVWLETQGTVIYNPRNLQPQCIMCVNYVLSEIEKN

With `N#Cc1cc(F)cc2c1[C@@H](c1ccc(S(=O)(=O)C(F)(F)F)c3c1C[C@@H](F)[C@H]3O)CC[C@@H]2F` [Example 136, (5S,8R)-3,5-Difluoro-8-[(1S,2R)-2-fluoro-1-hydroxy-7-(trifluoromethylsulfonyl)-2,3-dihydro-1H-inden-4-yl]-5,6,7,8-tetrahydronaphthalene-1-carbonitrile], the IC50 in test [1] (Table 2) was less than 100 nM; in test [2] (Table 2, 20 hours incubation) it was less than 100 nM.
With `N#Cc1cc(F)cc2c1[C@@H](c1ccc(C(F)(F)F)c(Cl)c1C#N)CC[C@@H]2F` [Example 137, (5S,8R)-8-[3-Chloro-2-cyano-4-(trifluoromethyl)phenyl]-3,5-difluoro-5,6,7,8-tetrahydronaphthalene-1-carbonitrile], the IC50 in test [1] (Table 2) was less than 100 nM; in test [2] (Table 2, 20 hours incubation) it was less than 100 nM.
As to `N#Cc1cc(F)cc2c1[C@@H](c1ccc(C(F)(F)F)c(Cl)c1C#N)CC[C@H]2F` [Example 138, (5R,8R)-8-[3-chloro-2-cyano-4-(trifluoromethyl)phenyl]-3,5-difluoro-5,6,7,8-tetrahydronaphthalene-1-carbonitrile], the 50% inhibitory concentration (IC50) is greater than 1000 nM in test [1] (Table 2) and 100 to 1000 nM in test [2] (Table 2, 20 hours incubation).
For `Cc1c([C@H]2CC[C@H](F)c3cc(F)cc(C#N)c32)cnc(C(C)(F)F)c1F` [Example 139, (5S,8S)-8-[6-(1,1-difluoroethyl)-5-fluoro-4-methylpyridin-3-yl]-3,5-difluoro-5,6,7,8-tetrahydronaphthalene-1-carbonitrile] the same measures were less than 100 nM and less than 100 nM.
The corresponding values for `CS(=O)(=O)c1ccc([C@H]2CCCc3cc(F)cc(C#N)c32)c2c1[C@H](O)[C@H](F)[C@@H]2F` [Example 140, (8R)-8-[(1S,2S,3R)-2,3-difluoro-1-hydroxy-7-methylsulfonyl-2,3-dihydro-1H-inden-4-yl]-3-fluoro-5,6,7,8-tetrahydronaphthalene-1-carbonitrile] are less than 100 nM and less than 100 nM.
With `N#Cc1cc(F)cc2c1[C@@H](c1ccc(C(F)(F)F)c3c1C(=O)OC3)CC[C@@H]2F` [Example 142, (5S,8R)-3,5-Difluoro-8-[3-oxo-7-(trifluoromethyl)-1,3-dihydro-2-benzofuran-4-yl]-5,6,7,8-tetrahydronaphthalene-1-carbonitrile], the IC50 in test [1] (Table 2) was less than 100 nM; in test [2] (Table 2, 20 hours incubation) it was less than 100 nM.
As to `Cn1nccc1-c1ccc([C@H]2CC[C@H](F)c3cc(F)cc(C#N)c32)c2c1[C@H](O)C(F)(F)C2` [Example 143, (5S,8R)-8-[(1S)-2,2-difluoro-1-hydroxy-7-(2-methylpyrazol-3-yl)-1,3-dihydroinden-4-yl]-3,5-difluoro-5,6,7,8-tetrahydronaphthalene-1-carbonitrile], the IC50 was less than 100 nM in test [1] (Table 2) and less than 100 nM in test [2] (Table 2, 20 hours incubation).
On to `Cn1ncc(C#N)c1-c1ccc([C@H]2CC[C@H](F)c3cc(F)cc(C#N)c32)c2c1[C@H](O)C(F)(F)C2` [Example 145, 5-[(3S)-7-[(1R,4S)-8-cyano-4,6-difluoro-1,2,3,4-tetrahydronaphthalen-1-yl]-2,2-difluoro-3-hydroxy-1,3-dihydroinden-4-yl]-1-methylpyrazole-4-carbonitrile], for which the IC50 in test [1] (Table 3) is less than 100 nM; in test [2] (Table 3, 20 hours incubation), less than 100 nM.
Consider `Cn1nncc1-c1ccc([C@H]2CC[C@H](F)c3cc(F)cc(C#N)c32)c2c1[C@H](O)C(F)(F)C2` [Example 147, (5S,8R)-8-[(1S)-2,2-difluoro-1-hydroxy-7-(3-methyltriazol-4-yl)-1,3-dihydroinden-4-yl]-3,5-difluoro-5,6,7,8-tetrahydronaphthalene-1-carbonitrile], for which the IC50 in test [1] (Table 3) was less than 100 nM; in test [2] (Table 3, 20 hours incubation), less than 100 nM.
For the compound `Cc1cnn(C)c1-c1ccc([C@H]2CC[C@H](F)c3cc(F)cc(C#N)c32)c2c1[C@H](O)[C@H](F)C2` [Example 152], the IC50 in test [1] (Table 3) is less than 100 nM; in test [2] (Table 3, 20 hours incubation) it was less than 100 nM.
In the case of `N#Cc1cc(F)cc2c1[C@@H](c1ccc(-c3cccnc3N)c3c1CC(F)(F)[C@H]3O)CC[C@@H]2F` [Example 153, (5S,8R)-8-[(1S)-7-(2-aminopyridin-3-yl)-2,2-difluoro-1-hydroxy-1,3-dihydroinden-4-yl]-3,5-difluoro-5,6,7,8-tetrahydronaphthalene-1-carbonitrile], the IC50 is less than 100 nM in test [1] (Table 3) and less than 100 nM in test [2] (Table 3, 20 hours incubation).
Regarding `Cc1cn[nH]c1-c1ccc([C@H]2CC[C@H](F)c3cc(F)cc(C#N)c32)c2c1[C@H](O)C(F)(F)C2` [Example 154, (5S,8R)-8-[(1S)-2,2-difluoro-1-hydroxy-7-(4-methyl-1H-pyrazol-5-yl)-1,3-dihydroinden-4-yl]-3,5-difluoro-5,6,7,8-tetrahydronaphthalene-1-carbonitrile], the IC50 in test [1] (Table 3) is less than 100 nM; in test [2] (Table 3, 20 hours incubation), less than 100 nM.
With `Cn1nccc1-c1ccc([C@H]2CC[C@H](F)c3cc(F)cc(C#N)c32)c2c1[C@H](O)[C@H](F)C2` [Example 157, (5S,8R)-3,5-difluoro-8-[(1S,2R)-2-fluoro-1-hydroxy-7-(2-methylpyrazol-3-yl)-2,3-dihydro-1H-inden-4-yl]-5,6,7,8-tetrahydronaphthalene-1-carbonitrile], the IC50 in test [1] (Table 3) was less than 100 nM; in test [2] (Table 3, 20 hours incubation) it was less than 100 nM.
In the case of `Cc1ncccc1-c1ccc([C@H]2CC[C@H](F)c3cc(F)cc(C#N)c32)c2c1[C@H](O)C(F)(F)C2` [Example 159, (5S,8R)-8-[(1S)-2,2-difluoro-1-hydroxy-7-(2-methylpyridin-3-yl)-1,3-dihydroinden-4-yl]-3,5-difluoro-5,6,7,8-tetrahydronaphthalene-1-carbonitrile], the IC50 was less than 100 nM in test [1] (Table 3) and less than 100 nM in test [2] (Table 3, 20 hours incubation).
Consider `N#Cc1ccccc1-c1ccc([C@H]2CC[C@H](F)c3cc(F)cc(C#N)c32)c2c1[C@H](O)C(F)(F)C2` [Example 162, (5S,8R)-8-[(1S)-7-(2-cyanophenyl)-2,2-difluoro-1-hydroxy-1,3-dihydroinden-4-yl]-3,5-difluoro-5,6,7,8-tetrahydronaphthalene-1-carbonitrile], for which the IC50 in test [1] (Table 3) is less than 100 nM; in test [2] (Table 3, 20 hours incubation), less than 100 nM.
Take `Cc1c(-c2ccc([C@H]3CC[C@H](F)c4cc(F)cc(C#N)c43)c3c2[C@H](O)C(F)(F)C3)cnn1C` [Example 166, (5S,8R)-8-[(1S)-7-(1,5-dimethyl-1H-pyrazol-4-yl)-2,2-difluoro-1-hydroxy-2,3-dihydro-1H-inden-4-yl]-3,5-difluoro-5,6,7,8-tetrahydronaphthalene-1-carbonitrile]: the IC50 was less than 100 nM in test [1] (Table 3) and less than 100 nM in test [2] (Table 3, 20 hours incubation).
As to `Cc1ncsc1-c1ccc([C@H]2CC[C@H](F)c3cc(F)cc(C#N)c32)c2c1[C@H](O)C(F)(F)C2` [Example 167, (5S,8R)-8-[(1S)-2,2-difluoro-1-hydroxy-7-(4-methyl-1,3-thiazol-5-yl)-2,3-dihydro-1H-inden-4-yl]-3,5-difluoro-5,6,7,8-tetrahydronaphthalene-1-carbonitrile], the IC50 in test [1] (Table 3) is less than 100 nM; in test [2] (Table 3, 20 hours incubation), less than 100 nM.
On to `N#Cc1cc(F)cc2c1[C@@H](c1ccc(-c3cccnc3CF)c3c1CC(F)(F)[C@H]3O)CC[C@@H]2F` [Example 173], for which the 50% inhibitory concentration (IC50) in test [1] (Table 3) is less than 100 nM; in test [2] (Table 3, 20 hours incubation), less than 100 nM.
For `Cn1ncnc1-c1ccc([C@H]2CC[C@H](F)c3cc(F)cc(C#N)c32)c2c1[C@H](O)C(F)(F)C2` [Example 174, (5S,8R)-8-[(1S)-2,2-difluoro-1-hydroxy-7-(2-methyl-1,2,4-triazol-3-yl)-1,3-dihydroinden-4-yl]-3,5-difluoro-5,6,7,8-tetrahydronaphthalene-1-carbonitrile], the IC50 was less than 100 nM in test [1] (Table 3) and less than 100 nM in test [2] (Table 3, 20 hours incubation).
With `CS(=O)(=O)c1c(Cl)cc([C@H]2CC[C@H](F)c3cc(F)cc(C#N)c32)c2c1[C@H](O)[C@H](F)C2` [Example 213, (5S,8R)-8-[(1S,2R)-6-Chloro-2-fluoro-1-hydroxy-7-methylsulfonyl-2,3-dihydro-1H-inden-4-yl]-3,5-difluoro-5,6,7,8-tetrahydronaphthalene-1-carbonitrile], the 50% inhibitory concentration (IC50) in test [1] (Table 3) is less than 100 nM; in test [2] (Table 3, 20 hours incubation), less than 100 nM.
`CS(=O)(=O)c1ccc([C@H]2C[C@H](F)[C@H](F)c3cc(F)cc(C#N)c32)c2c1[C@H](O)[C@H](F)C2` [Example 215, (5R,6S,8R)-3,5,6-trifluoro-8-[(1S,2R)-2-fluoro-1-hydroxy-7-methanesulfonyl-2,3-dihydro-1H-inden-4-yl]-5,6,7,8-tetrahydronaphthalene-1-carbonitrile]: the 50% inhibitory concentration (IC50) in test [1] (Table 3) was less than 100 nM; in test [2] (Table 3, 20 hours incubation) it was less than 100 nM.
Regarding `Cn1cncc1-c1ccc([C@H]2CC[C@H](F)c3cc(F)cc(C#N)c32)c2c1[C@H](O)C(F)(F)C2` [Example 240, (5S,8R)-8-[(1S)-2,2-difluoro-1-hydroxy-7-(3-methylimidazol-4-yl)-1,3-dihydroinden-4-yl]-3,5-difluoro-5,6,7,8-tetrahydronaphthalene-1-carbonitrile], the IC50 in test [1] (Table 3) was less than 100 nM; in test [2] (Table 3, 20 hours incubation), less than 100 nM.
In the case of `Cc1ccncc1-c1ccc([C@H]2CC[C@H](F)c3cc(F)cc(C#N)c32)c2c1[C@H](O)C(F)(F)C2` [Example 241, (5S,8R)-8-[(1S)-2,2-difluoro-1-hydroxy-7-(4-methylpyridin-3-yl)-2,3-dihydro-1H-inden-4-yl]-3,5-difluoro-5,6,7,8-tetrahydronaphthalene-1-carbonitrile], the IC50 in test [1] (Table 3) was less than 100 nM; in test [2] (Table 3, 20 hours incubation) it was less than 100 nM.
